In general, IC50 refers to the concentration at which inhibition is half-maximal.

Where a SMILES comes first, the peptide text is derived from it.

This is an account of results in publication PMC8140080, “The lexicon of antimicrobial peptides: a complete set of arginine and tryptophan sequences” (Communications Biology, 2021).

Data set [1] can be described thus: Transmission electron microscopy of peptide aggregates. Format: physicochemical. The conditions noted are these: single independent experiment. The protocol: Peptides were prepared at 800 µM in PBS with 5% v/v DMSO, and any excessively large aggregates or dust removed by centrifugation (2000 × g, 5 min). Further dilutions (80 µM) were prepared in PBS with 5% v/v DMSO, and the latter diluent was also used to prepare control (peptide-free) grids. Carbon film 200 mesh copper transmission electron microscope (TEM) grids (Agar Scientific Ltd. Stanstead, UK) were initially functionalized using a glow discharger (K100X; Quorum technologies Ltd. Laughton, UK) under a current of 25 mA for 30 sec. These were then placed onto 10 µl droplets of each test sample solution for 1 min, and then transferred onto 10 µl droplets of 1% w/v uranyl acetate for a further minute. Excess solution was removed using filter paper and sample grids were air dried for at least 1 h. Grids were imaged using a Tecnai™ T12 BioTwin TEM (FEI Company. Hillsboro, USA). Images were cropped and scale bars were added using ImageJ. Images are representative of single independent experiments.

The next data set relates to S. aureus ATCC 6538. The format is cell-based, Staphylococcus aureus. The protocol: (§1) S. aureus ATCC 6538 and C. albicans ATCC 10231 were obtained from Oxoid (Basingstoke, UK), and P. aeruginosa PAO1 donated by the University of Nottingham. Bacteria were routinely grown using Mueller–Hinton broth or agar and yeast was grown using Sabaraud Dextrose broth or agar. Cultures were incubated aerobically on agar at 37 °C for 20 h or under the same conditions in broth with shaking at 200 rpm.
(§2) Planktonic cultures were obtained by inoculating single colonies from 18–20 h old agar cultures into 10 ml of sterile broth, followed by 20-h incubation. S. aureus and P. aeruginosa assays were performed using Mueller–Hinton broth and agar and C. albicans assays were performed using Sabaraud Dextrose broth and agar. […]
(§3) Peptide stock solutions of 800 µM were prepared by dissolving solid peptides (provided in pre-weighed aliquots by the supplier) in phosphate buffer solution (PBS) containing 5% (v/v) DMSO. […] Each polystyrene plate was then aerobically incubated at 37 °C for 18–20 h without shaking, before measuring OD600 using a spectrophotometer plate reader (Nanostar; BMG Labtech, Ayelsbury). […] The mean IC50 for each peptide was calculated from the results of four independent experiments, with a single technical replicate each. Specific activity was calculated by plotting IC50 (µM) multiplied by peptide length, against peptide length. […]

For data set [2], the system named is P. aeruginosa. The conditions noted are these: read-out: minimum IC50; cited from earlier work. The text has this:
(§4) A second general conclusion is that overall activity increases consistently with length. […] We previously reported variable activity in a group of cationic and hydrophobic AMPs based on apoE-derived AMPs, and a range of similar peptides we tested.

The test system of data set [3] is P. aeruginosa. As to the kind of experiment: Scanning electron microscopy of peptide-treated bacteria. Format: cell-based, Pseudomonas aeruginosa. The conditions noted are these: 1 h, 37 °C, ~10^7 CFU/ml in PBS, three independent experiments.
The next data set has as its system P. aeruginosa PAO1. As to the kind of experiment: Antimicrobial assay (IC50 and MBC), broth microdilution. Format: cell-based, Pseudomonas aeruginosa. The conditions noted are these: Fig. 1a; range assayed 0.8-400 µM; b35 words are general, printed in the P. aeruginosa morphology study. Here is the method: as §1, §2, §3
A general note: In broth dilution the organism is exposed to a series of concentrations in liquid medium.

Another data set relates to S. aureus. The conditions noted are these: read-out: minimum IC50; cited from earlier work.
From the text: as §4

Data set [4] has as its system P. aeruginosa. As to the kind of experiment: Atomic force microscopy of peptide-treated bacteria. The format is cell-based, Pseudomonas aeruginosa. The conditions noted are these: 100 µM peptide, 2 min exposure, 37 °C; n = 6 cells. Here is the method: A suspension of P. aeruginosa at ~10^7 CFU/ml in PBS was prepared as for SEM; 500 μl of this suspension was incubated with 500 μl of […] peptide (200 μM in PBS; 5% v/v DMSO) at 37 °C with shaking at 200 rpm for 45 min. As a negative control, 500 μl bacterial suspension was incubated with PBS containing 5% v/v DMSO. Samples of 50 μl were withdrawn from the suspensions at 2, 15 and 45 min for imaging by AFM. Chips were prepared by adsorbing 50 μl of poly-L-lysine onto a cleaved mica chip for 3 min. Excess poly-L-lysine was washed off by adding 10 × 200 μl aliquots of MilliQ water and excess water was removed using filter paper. Test samples were deposited onto the chips and left to adhere for 1-2 min, before further washing using 10 × 200 μl aliquots of MilliQ water, blotting off excess with filter paper, before leaving chips to air-dry overnight. Chips were scanned using a Bruker multimode 8 (Bruker, Billerica, USA) in ScanAsyst air mode. All images were taken at a resolution of 512 points per dimension unless stated otherwise, and are representative of single technical experiments. Images obtained were processed and different length measurements were performed using Gwyddion version 2.48 (http://gwyddion.net/). Measurements were taken of the long axis length, short axis length and maximum vertical height of the bacterium above the chip surface. […]

Regarding “WRWWWWW [library heptapeptide forming substantial aggregates at 800 µM; C-terminal amidation and N-terminal acetylation]”, the entries for the “visible aggregates by TEM” value in data set [1] (80 µM in PBS with 5% v/v DMSO) and in data set [1] (800 µM in PBS with 5% v/v DMSO) were “not” and “Substantial visible aggregates were present”, respectively.

As to “WWWRRRR [library heptapeptide of W and R; C-terminal amidation and N-terminal acetylation carried out for all peptides]”, the “increase of IC50 relative to WWWRRRW” value with S. aureus ATCC 6538 (one residue changed, organism not given) is 65 fold.

“WRKWRKRWWWRKWRKRWW [ApoEdpL-W, 18mer apoE-derived antimicrobial peptide composed of W, R and K, from the authors' earlier work]”: in the data set with P. aeruginosa [2], the concentration for half-maximal inhibition (IC50) was 7 µM.

Turning to “RRWYRWWR [Y-containing octapeptide similar to RWWRWWR, from the authors' earlier work]”, the IC50 with P. aeruginosa [2] is 21 µM.

Molecule `CC(=O)N[C@@H](Cc1c[nH]c2ccccc12)C(=O)N[C@@H](Cc1c[nH]c2ccccc12)C(=O)N[C@@H](Cc1c[nH]c2ccccc12)C(=O)N[C@@H](CCCNC(=N)N)C(=O)N[C@@H](CCCNC(=N)N)C(=O)N[C@@H](CCCNC(=N)N)C(=O)N[C@@H](Cc1c[nH]c2ccccc12)C(N)=O` [WWWRRRW] (Ac-WWWRRRW-NH2) yielded an IC50 with S. aureus ATCC 6538 (ATCC 6538) of 2900 ± 300 nM.

On to “RRRRRRR [C-terminal amidation and N-terminal acetylation carried out for all peptides]”, for which the “bacterial morphology by SEM” value in the data set with P. aeruginosa [3] (80 µM peptide) and with P. aeruginosa [3] (400 µM peptide) was “no discernible change in morphology” in each case. For the same molecule, the “inhibitory activity (in words)” value with P. aeruginosa PAO1 was “inactive”.

With “RWWRWWR [C-terminal amidation and N-terminal acetylation]”, the “bacterial morphology by SEM” value in the data set on P. aeruginosa [3] (80 µM peptide) is given as “formation of spheroid objects on the surface of the bacteria, indicative of membrane blebbing”. Further, in the data set on P. aeruginosa [3] (400 µM peptide), the “bacterial morphology by SEM” value is “dramatic reduction in the number of intact bacteria”. Moreover, the IC50 in the data set with S. aureus was 14 µM. The “inhibitory activity (in words)” value in the data set on P. aeruginosa PAO1 is “one of the most active”. Further, in the data set with P. aeruginosa [4], the “bacterial height by AFM” value is given as “doubled” and the “mean bacterial width by AFM” value was “decreased by a third”.
